Experimental findings from patent US6808936B1, “Methods and compositions for use in the diagnosis and treatment of chronic immune disease” (R.E.D. Laboratories, N.V., priority 2000, dated 2004) are described below.

What all share (experiment): Caspase activity in extracts of U937 cell line induced to apoptosis with camptothecin
Common to all, as to assay type: cell-based, human

The subject of one test is caspase 2. The conditions noted are these: U937 Cell Line Induced (G3), camptothecin 10 micrograms per mL; n 4; uninduced 50 ± 32. As to the method:
(§1) Caspase levels in PBMC extracts were measured using a commercially available kit (BioSource International) based on a calorimetric assay. Briefly, PBMC extracts were diluted to a final concentration of 1 microgram of protein per 50 microliters of diluent (provided with the kit). This sample (1 microgram) was then added to 55 microliters of assay buffer containing a substrate specific for the particular caspase to be measured (if caspase activity is present, the substrate is cleaved, liberating color). Cell extracts to be used as positive and negative controls for caspase activity levels were prepared using the method of […] et al. (1999), Oncogene 14:1007-1012). Briefly, the human monocytic leukemia cell line U937 was induced to begin apoptosis by treatment with camptothecin at a concentration of 10 micrograms per mL of 2×10^6 cells. Uninduced cells were used as the negative control. Also included as a negative control were normal human monocytes, elutriated and frozen as live cells. All cell extracts and protein determinations were made as described above. The reaction mixture (1 microgram protein sample+caspase substrate) was incubated at 37 degrees C. for 20-24 hours. The resultant color was measured using a spectrophotometer at a wavelength of 405 nm. Background absorbance (i.e., from a reagent blank without protein) was subtracted from all sample values. All assays were performed in triplicate, […]

The next test relates to caspase 3. As to the method: as §1
Another test concerns caspase 6. The conditions noted are these: U937 Cell Line Induced (G3), camptothecin 10 micrograms per mL; n 4; uninduced 162 ± 20. As to the method: as §1
The subject of a further test is caspase 8. The conditions noted are these: U937 Cell Line Induced (G3), camptothecin 10 micrograms per mL; n 4; uninduced 91 ± 11. As to the method: as §1
Another test has as its system caspase 9. The conditions noted are these: U937 Cell Line Induced (G3), camptothecin 10 micrograms per mL; n 4; uninduced 45 ± 6. As to the method:
as §1

In the test on caspase 2, `CC[C@@]1(O)C(=O)OCc2c1cc1n(c2=O)Cc2cc3ccccc3nc2-1` [camptothecin] came in with a C2 caspase activity of 251 ± 39. The “Caspase 3 Activity” value in the test with caspase 3 (Table 2: U937 Cell Line Induced (G3), camptothecin, mean ± s.d. of triplicates, uninduced 82 ± 9) amounted to 336 ± 6 mAU. Besides, the C3 caspase activity with caspase 3 (U937 Cell Line Induced (G3), camptothecin 10 micrograms per mL, n 4, uninduced 73 ± 26) is on record as 304 ± 50. This molecule registered a C6 caspase activity in the test with caspase 6 of 277 ± 57. In the test on caspase 8, the C8 caspase activity was found to be 207 ± 52. In the test with caspase 9, this molecule came in with a C9 caspase activity of 90 ± 29.
